Results: patent US20150157021A1, “NEW ANTIFUNGAL COMPOSITIONS” (DSM IP ASSETS B.V., priority 2012, published 2015)

Tests used:
Type in all cases: in vivo
Penicillium italicum = assay: Treatment of wounded oranges inoculated with Penicillium italicum (Examples 7, 8); conditions: 20° C.
Experimental: Ten fresh, organic oranges were used per treatment. Each orange was soaked in a 180 ppm hypochlorite solution for 10 minutes, then rinsed thoroughly with fresh tap water and dried. The peel of each disinfected orange was wounded once using a cork borer according to the method described by de Lapeyre de Bellaire and Dubois (1987). Subsequently, each wound was inoculated with 10 μl of a Penicillium italicum suspension containing 1×10^5 of spores/ml. After incubation for 3 hours at 20° C., each wound and the orange peel area of 1 cm around the wound was treated with in total 150 μl of a freshly prepared aqueous antifungal composition comprising either 500 ppm natamycin (DSM Food Specialties, Delft, The Netherlands), 800 ppm boscalid or both. Each antifungal composition also comprised 3.2% (w/w) beeswax, 0.8% (w/w) glycerol, 0.7% (w/w) polyoxyethylene sorbitan monostearate (Tween 60), 0.2% (w/w) polyoxyethylene sorbitan monooleate (Tween 80), 0.05% (w/w) methylhydroxyethyl-cellulose (MHEC), 0.03% (w/w) anti-foaming agent, 0.02% (w/w) xanthan gum, 0.02% (w/w) citric acid, 0.01% (w/w) lactic acid and 0.01% potassium sorbate. A composition without natamycin or boscalid was used as control. […] The treated oranges were incubated in a closed box in the dark at 20° C. and assessed on mould growth during a 17-day incubation period. The antifungal activity (in %) of the individual and combined active ingredients was determined by calculating the reduction in mould growth observed on the oranges treated with the antifungal composition in comparison to the mould growth on the oranges treated with the control composition according to the Colby method (Colby, 1967) described in Example 5.
The experiment was conducted as described in Example 7, except for the fact that each wounded and inoculated orange was treated with 150 μl of a freshly prepared aqueous antifungal composition comprising either 250 ppm natamycin (DSM Food Specialties, Delft, The Netherlands), 400 ppm boscalid or both. The treated oranges were incubated in a closed box in the dark at 20° C. and assessed on mould growth during a 18-day incubation period. During incubation, the treated oranges were assessed on mould growth according to the method described in Example 7.

Botrytis cinerea [1] = assay: Treatment of wounded sweet peppers inoculated with Botrytis cinerea (Examples 9, 10); conditions: 20° C., 400 ppm natamycin
Experimental: Ten fresh, organic sweet peppers were used per treatment. Each sweet pepper was soaked in a 180 ppm hypochlorite solution for 10 minutes, then rinsed thoroughly with fresh tap water and dried. The peel of each disinfected sweet pepper was wounded once using a cork borer according to the method described by de Lapeyre de Bellaire and Dubois (1987). Subsequently, each wound was inoculated with 10 μl of a Botrytis cinerea suspension containing 1×10^5 of spores/ml. After incubation for 3 hours at 20° C., each wound and the skin area of 0.5 cm around the wound was treated with in total 75 μl of a freshly prepared aqueous antifungal composition comprising either 400 ppm natamycin (DSM Food Specialties, Delft, The Netherlands), 600 ppm fenhexamid or both. Each antifungal composition also comprised 3.2% (w/w) beeswax, 0.8% (w/w) glycerol, 0.7% (w/w) polyoxyethylene sorbitan monostearate (Tween 60), 0.2% (w/w) polyoxyethylene sorbitan monooleate (Tween 80), 0.05% (w/w) methylhydroxyethyl-cellulose (MHEC), 0.03% (w/w) anti-foaming agent, 0.02% (w/w) xanthan gum, 0.02% (w/w) citric acid, 0.01% (w/w) lactic acid and 0.01% potassium sorbate. A composition without natamycin or fenhexamid was used as control.
The treated sweet peppers were incubated in a closed box in the dark at 20° C. and assessed on mould growth during a 26-day incubation period. The antifungal activity (in %) of the individual and combined active ingredients was determined by calculating the reduction in mould growth observed on the sweet peppers treated with the antifungal composition in comparison to the mould growth on the sweet peppers treated with the control composition according to the Colby method (Colby, 1967) described in Example 5.
The experiment was conducted as described in Example 9, except for the fact that each wounded and inoculated sweet pepper was treated with 75 μl of a freshly prepared aqueous antifungal composition comprising either 400 ppm natamycin (DSM Food Specialties, Delft, The Netherlands), 800 ppm carboxin or both. The treated sweet peppers were incubated in a closed box in the dark at 20° C. and assessed on mould growth during a 26-day incubation period. During incubation, the treated sweet peppers were assessed on mould growth according to the method described in Example 9.

Botrytis cinerea [2] = assay: Treatment of wounded strawberries inoculated with Botrytis cinerea (Examples 5, 6); conditions: for Observed antifungal activity O (%): strawberries, 20° C.
Experimental: Twelve fresh, organic strawberries were used per treatment. Each strawberry was wounded with a 0.5 mm long cut and each wound was inoculated with 10 μl of a Botrytis cinerea suspension containing 1×10^5 of spores/ml. After a 3-hour incubation period at 20° C., each strawberry was dipped individually for 1 minute in a freshly prepared aqueous antifungal composition comprising either 500 ppm natamycin (DSM Food Specialties, Delft, The Netherlands), 500 ppm fenhexamid or both. Each antifungal composition also comprised 3.2% (w/w) beeswax, 0.8% (w/w) glycerol, 0.7% (w/w) polyoxyethylene sorbitan monostearate (Tween 60), 0.1% (w/w) polyoxyethylene sorbitan monooleate (Tween 80), 0.05% (w/w) methylhydroxyethyl-cellulose (MHEC), 0.03% (w/w) anti-foaming agent, 0.02% (w/w) xanthan gum, 0.02% (w/w) citric acid, 0.01% (w/w) lactic acid and 0.01% potassium sorbate. A composition without natamycin or fenhexamid was used as control. […] The treated strawberries were incubated in a closed box in the dark at 20° C. for 11 days.
The expected antifungal activity (E in %) of the combined antifungal composition comprising both active ingredients was calculated according to the Colby equation (Colby, 1967): […]
wherein X and Y are the observed antifungal activities (in %) of the individual active ingredients X and Y, respectively.
The experiment was conducted as described in Example 5, except for the fact that each wounded and inoculated strawberry was dipped individually for 1 minute in a freshly prepared aqueous antifungal composition comprising either 250 ppm natamycin (DSM Food Specialties, Delft, The Netherlands), 250 ppm fenhexamid or both. The treated strawberries were incubated in a closed box in the dark at 20° C. for 10 days. During incubation, the treated strawberries were assessed on mould growth according to the two methods described in Example 5.

Structure (SMILES): O=C(Nc1ccccc1-c1ccc(Cl)cc1)c1cccnc1Cl [Boscalid, boscalid]
- Observed antifungal activity O (%) (Penicillium italicum; 7 days, 500 ppm natamycin, 800 ppm boscalid or both): 54%
- Observed antifungal activity O (%) (Penicillium italicum; 8 days, 500 ppm natamycin, 800 ppm boscalid or both): 40%
- Observed antifungal activity O (%) (Penicillium italicum; 9 days, 500 ppm natamycin, 800 ppm boscalid or both): 39%
- Observed antifungal activity O (%) (Penicillium italicum; 10 days, 500 ppm natamycin, 800 ppm boscalid or both): 29%
- Observed antifungal activity O (%) (Penicillium italicum; 11 days, 250 ppm natamycin, 400 ppm boscalid or both): 35%
- Observed antifungal activity O (%) (Penicillium italicum; 11 days, 500 ppm natamycin, 800 ppm boscalid or both): 35%
- Observed antifungal activity O (%) (Penicillium italicum; 12 days, 250 ppm natamycin, 400 ppm boscalid or both): 22%
- Observed antifungal activity O (%) (Penicillium italicum; 12 days, 500 ppm natamycin, 800 ppm boscalid or both): 18%
- Observed antifungal activity O (%) (Penicillium italicum; 13 days, 250 ppm natamycin, 400 ppm boscalid or both): 24%
- Observed antifungal activity O (%) (Penicillium italicum; 13 days, 500 ppm natamycin, 800 ppm boscalid or both): 20%
- Observed antifungal activity O (%) (Penicillium italicum; 14 days, 250 ppm natamycin, 400 ppm boscalid or both): 15%
- Observed antifungal activity O (%) (Penicillium italicum; 14 days, 500 ppm natamycin, 800 ppm boscalid or both): 8%
- Observed antifungal activity O (%) (Penicillium italicum; 15 days, 250 ppm natamycin, 400 ppm boscalid or both): 10%
- Observed antifungal activity O (%) (Penicillium italicum; 15 days, 500 ppm natamycin, 800 ppm boscalid or both): 8%
- Observed antifungal activity O (%) (Penicillium italicum; 17 days, 250 ppm natamycin, 400 ppm boscalid or both): 6%
- Observed antifungal activity O (%) (Penicillium italicum; 17 days, 500 ppm natamycin, 800 ppm boscalid or both): 0%
- Observed antifungal activity O (%) (Penicillium italicum; 18 days, 250 ppm natamycin, 400 ppm boscalid or both): 1%

Structure (SMILES): CC1=C(C(=O)Nc2ccccc2)SCCO1 [Carboxin, carboxin]
- Observed antifungal activity O (%) (Botrytis cinerea [1]; 17-19 days, 800 ppm carboxin or both): 67%
- Observed antifungal activity O (%) (Botrytis cinerea [1]; 20-21 days, 800 ppm carboxin or both): 55%
- Observed antifungal activity O (%) (Botrytis cinerea [1]; 22 days, 800 ppm carboxin or both): 45%
- Observed antifungal activity O (%) (Botrytis cinerea [1]; 24 days, 800 ppm carboxin or both): 42%
- Observed antifungal activity O (%) (Botrytis cinerea [1]; 25 days, 800 ppm carboxin or both): 41%
- Observed antifungal activity O (%) (Botrytis cinerea [1]; 26 days, 800 ppm carboxin or both): 38%

Structure (SMILES): CC1(C(=O)Nc2ccc(O)c(Cl)c2Cl)CCCCC1 [Fenhexamid, fenhexamid]
- Observed antifungal activity O (%) (Botrytis cinerea [1]; 13-17 days, 600 ppm fenhexamid or both): 0%
- Observed antifungal activity O (%) (Botrytis cinerea [1]; 18-22 days, 600 ppm fenhexamid or both): 0%
- Observed antifungal activity O (%) (Botrytis cinerea [1]; 6 days, 600 ppm fenhexamid or both): 0%
- Observed antifungal activity O (%) (Botrytis cinerea [1]; 8 days, 600 ppm fenhexamid or both): 0%
- Observed antifungal activity O (%) (Botrytis cinerea [1]; 10 days, 600 ppm fenhexamid or both): 00%
- Observed antifungal activity O (%) (Botrytis cinerea [1]; 11 days, 600 ppm fenhexamid or both): 0%
- Observed antifungal activity O (%) (Botrytis cinerea [1]; 24 days, 600 ppm fenhexamid or both): 0%
- Observed antifungal activity O (%) (Botrytis cinerea [1]; 25 days, 600 ppm fenhexamid or both): 0%
- Observed antifungal activity O (%) (Botrytis cinerea [1]; 26 days, 600 ppm fenhexamid or both): 0%
- Number of moulded strawberries/total number of 12 strawberries (Botrytis cinerea [2]; Day 5, 20° C., 250 ppm natamycin, 250 ppm fenhexamid or both): 11/12
- Number of moulded strawberries/total number of 12 strawberries (Botrytis cinerea [2]; Day 5, 20° C., 250 ppm natamycin, 250 ppm fenhexamid or both, listed as fenhexamid): 11
- Number of moulded strawberries/total number of 12 strawberries (Botrytis cinerea [2]; Day 6, 20° C., 500 ppm natamycin, 500 ppm fenhexamid or both): 12/12
- Number of moulded strawberries/total number of 12 strawberries (Botrytis cinerea [2]; Day 6-7, 20° C., 250 ppm natamycin, 250 ppm fenhexamid or both): 11/12
- Number of moulded strawberries/total number of 12 strawberries (Botrytis cinerea [2]; Day 6-7, 20° C., 250 ppm natamycin, 250 ppm fenhexamid or both, listed as fenhexamid): 11
- Number of moulded strawberries/total number of 12 strawberries (Botrytis cinerea [2]; Day 7-8, 20° C., 500 ppm natamycin, 500 ppm fenhexamid or both): 12/12
- Number of moulded strawberries/total number of 12 strawberries (Botrytis cinerea [2]; Day 8, 20° C., 250 ppm natamycin, 250 ppm fenhexamid or both): 12/12
- Number of moulded strawberries/total number of 12 strawberries (Botrytis cinerea [2]; Day 8, 20° C., 250 ppm natamycin, 250 ppm fenhexamid or both, listed as fenhexamid): 12
- Number of moulded strawberries/total number of 12 strawberries (Botrytis cinerea [2]; Day 9, 20° C., 500 ppm natamycin, 500 ppm fenhexamid or both): 12/12
- Number of moulded strawberries of 12 (Botrytis cinerea [2]; after 6 through 9 days of incubation, 500 ppm natamycin alone or 500 ppm fenhexamid alone): 12
- Observed antifungal activity O (%) (Botrytis cinerea [2]; 4 days, 500 ppm natamycin, 500 ppm fenhexamid or both): 22%
- Observed antifungal activity O (%) (Botrytis cinerea [2]; 5 days, 500 ppm natamycin, 500 ppm fenhexamid or both): 25%
- Observed antifungal activity O (%) (Botrytis cinerea [2]; 6 days, 500 ppm natamycin, 500 ppm fenhexamid or both): 0%
- Observed antifungal activity O (%) (Botrytis cinerea [2]; 7 days, 500 ppm natamycin, 500 ppm fenhexamid or both): 0%
- Observed antifungal activity O (%) (Botrytis cinerea [2]; 8 days, 250 ppm natamycin, 250 ppm fenhexamid or both): 7.5%
- Observed antifungal activity O (%) (Botrytis cinerea [2]; 8 days, 500 ppm natamycin, 500 ppm fenhexamid or both): 0%
- Observed antifungal activity O (%) (Botrytis cinerea [2]; 9 days, 250 ppm natamycin, 250 ppm fenhexamid or both): 0%
- Observed antifungal activity O (%) (Botrytis cinerea [2]; 9 days, 500 ppm natamycin, 500 ppm fenhexamid or both): 0%
- Observed antifungal activity O (%) (Botrytis cinerea [2]; 10 days, 250 ppm natamycin, 250 ppm fenhexamid or both): 0%
- Observed antifungal activity O (%) (Botrytis cinerea [2]; 10 days, 500 ppm natamycin, 500 ppm fenhexamid or both): 0%
- Observed antifungal activity O (%) (Botrytis cinerea [2]; 11 days, 500 ppm natamycin, 500 ppm fenhexamid or both): 0%
